Test results published in patent US20110070232A1, “Combination Therapy with an Antitumor Alkaloid” (Pharma Mar, S.A., priority 2008, published 2011).
Like-named read-outs stand apart in the source and are kept apart here.

What was measured:
[1] = test system: BxPC-3 human pancreatic carcinoma cell line; assay: IC50 determination, MTS assay, 72 h (Example 3); type: cell-based; settings: 72 hours of drug exposure
Procedure: (§1) Gemcitabine (Gemzar®) was the agent evaluated in combination with PM00104. The human pancreatic carcinoma cell lines selected for this assay were the following: BxPC-3, PANC-1, MIA PaCA-2, and SW1990 cell lines. BxPC-3 cell line was grown in RPMI 1640 medium supplemented with 10% FBS, 1.5 g/L sodium bicarbonate, 4.5 g/L glucose, 10 mM HEPES, 1 mM sodium pyruvate, and 2 mM L-glutamine. PANC-1 cell line was grown in DMEM supplemented with 10% FBS, 1.5 g/L sodium bicarbonate, 4.5 g/L glucose, and 4 mM L-glutamine. MIA PaCA-2 cell line was grown in DMEM supplemented with 10% FBS, 1.5 g/L sodium bicarbonate, 4.5 g/L glucose, 2.5% Horse Serum, and 2 mM L-glutamine. SW1990 cell line was grown in RPMI 1640 medium supplemented with 10% FBS and 2 mM L-glutamine.
(§2) a. […] It was used the same methodology as those disclosed in Example 1.
(§3) IC50 values were calculated from an average of three assays for each of the test agents.

[2] = test system: MIA PaCA-2 human pancreatic carcinoma cell line; assay: IC50 determination, MTS assay, 72 h (Example 3); type: cell-based; settings: 72 hours of drug exposure
Procedure: as §1, §2, §3

[3] = test system: PANC-1 human pancreatic carcinoma cell line; assay: IC50 determination, MTS assay, 72 h (Example 3); type: cell-based; settings: 72 hours of drug exposure
Procedure: as §1, §2, §3

[4] = test system: SW1990 human pancreatic carcinoma cell line; assay: IC50 determination, MTS assay, 72 h (Example 3); type: cell-based; settings: 72 hours of drug exposure
Procedure: as §1, §2, §3

BxPC-3 tumors = type: in vivo, mice; settings: mg/kg/day: PM00104 0.90 IV, gemcitabine 180 IP
Procedure: Female CB17.SCID mice (Charles River Lab.) were utilized for all experiments. Animals were housed in ventilated rack caging with food and water ad libitum. The mice were acclimated for at least 5 days prior to tumor implantation with a tumor cell suspension.
The tumor model used in these studies was BxPC-3 cell line, which was obtained from the ATCC (Manassas, Va.).
Bacterial cultures were performed on aliquots of the cells prepared for implantation.
Treatments were initiated on DPI 14.
(§4) Tumor size measurements were recorded twice weekly from the treatment initiation until the termination of the study.
(§5) Mean, standard deviation and standard error of the mean were determined for tumor volume for all animal groups at all assessments. Student's t test was performed on tumor volumes at each measurement day, including at the end of the study, to determine whether there were any statistically significant differences between combination treatment groups and single monotherapy treatment groups.

Hs746T tumors = type: in vivo, mice
Source text: Female athymic nude mice (Harlan Sprague Dawley, Madison, Wis.) were utilized for all experiments. Animals were housed in ventilated rack caging with food and water ad libitum. The mice were acclimated for at least 5 days prior to tumor implantation with a tumor cell suspension.
The tumor model used in these studies was Hs746T cell line, which was obtained from the ATCC (Manassas, Va.).
Treatments were initiated on DPI 15.
5-FU was provided as a solution which was further diluted with water for injection.
as §4, §5

[5] = test system: BT-474 (breast cancer) cell line; assay: IC50 determination, MIT (tetrazolium) assay, 72 h (Example 18); type: cell-based; settings: Homo sapiens, BT-474, 72 h
Procedure: BT-474 cells were grown in RPMI supplemented with 1% ITS (insulin, transferrin and selenium), 10% Fetal Bovine Serum (FBS), 1% penicillin/streptomycin and 2 mM L-glutamine.
Before plating, cell cultures were trypsinized and cell number estimated using an automated flow cytometer.
Cells were harvested and seeded in 96 well microtiter plates at the appropriate cell density (5,000-10,000 cells) in 150 μL of media and incubated for 24 hours to allow the cells to attach before drug addition.
After the incubation period (72 hours), 50 μL of MIT solution was added to each microtiter well and incubated for further 8 hours at 37° C. The culture medium was then removed and 50 μl, of DMSO were added to dissolve the MIT crystals. Optical densities were read at 540 nm on spectrophotometer microplate reader.
IC50 values were calculated from an average of two to four assays for each of the test agents.

CaLu-6 tumors = type: in vivo, mice
Procedure: Female athymic nude mice (Harlan Sprague Dawley, Madison, Wis.) were utilized for all experiments. Animals were housed in ventilated rack caging with food and water ad libitum. The mice were acclimated for at least 5 days prior to tumor implantation.
The tumor model used in this study was CaLu-6 cell line which is a human lung cancer cell line obtained from the ATCC (Manassas, Va.). CaLu-6 cells were grown in Eagle's Minimum Essential Medium (MEM), 10% FBS and 2 mM L-glutamine. Cells from in vitro passage 12 were implanted SC into study mice using a 1 ml syringe with a 13G trocar: 5×10^6 cells/mouse in 0.2 ml 50% Matrigel/50% MEM medium of CaLu-6 without serum or antibiotics. Bacterial culture was taken on cells used to implant the study.
When tumors reached an appropriated volume, within the size range of 99±17 mm^3 (mean±SD), mice were randomized into the treatment and control groups based on tumor weight by using LabCat® In Life module V 8.0 SP1 tumor tracking and measurement software. Treatments were initiated on DPI 9.
Tumor size measurements were recorded 2-3 times/week from the treatment initiation until the termination of the study.
as §5

[6] = PM00104 0.9, 5-FU 50 (DPI 15) then 100 (DPI 22 & 29), irinotecan 20, doxorubicin 6 mg/kg/day
[7] = PM00104 0.9 mg/kg/day IV and/or Gemcitabine 180 mg/kg/day IP
[8] = Gemcitabine 90 mg/kg/day IP, alone or with PM00104 0.9 mg/kg/day IV

COc1c(C)cc2c(c1O)[C@@H]1[C@@H]3Cc4c(OC(C)=O)c(C)c5c(c4[C@H](CNC(=O)/C=C/c4cccc(C(F)(F)F)c4)N3[C@@H](O)[C@H](C2)N1C)OCO5 [PM00104]
IC50 [1]: 0.036 mg/L | IC50 [2]: 0.093 mg/L | IC50 [3]: 0.015 mg/L | IC50 [4]: 0.0051 mg/L | % Inhibition (BxPC-3 tumors; day 14): −0.9% | % T/C on day (BxPC-3 tumors; day 14): 100.9% | % Inhibition (BxPC-3 tumors; day 16): −40.3% | % T/C on day (BxPC-3 tumors; day 16): 140.3% | % Inhibition (BxPC-3 tumors; day 19): −26.1% | % T/C on day (BxPC-3 tumors; day 19): 126.1% | % Inhibition (BxPC-3 tumors; day 22): −16.5% | % T/C on day (BxPC-3 tumors; day 22): 116.5% | % Inhibition (BxPC-3 tumors; day 26): 7.8% | % T/C on day (BxPC-3 tumors; day 26): 92.2% | % Inhibition (BxPC-3 tumors; day 29): −6.3% | % T/C on day (BxPC-3 tumors; day 29): 106.3% | % Inhibition (BxPC-3 tumors; day 34): −16.8% | % Inhibition (BxPC-3 tumors; day 40): −26.3% | % T/C on day (BxPC-3 tumors; day 40): 126.3% | % T/C on day 15 (Hs746T tumors; [6]): 106.6% | % T/C on day 19 (Hs746T tumors; [6]): 55.8% | % T/C on day 22 (Hs746T tumors; [6]): 60.9% | % T/C on day 26 (Hs746T tumors; [6]): 54.2% | % T/C on day 29 (Hs746T tumors; [6]): 58.6% | % T/C on day 33 (Hs746T tumors; [6]): 80.8% | % Inhibition (Hs746T tumors; day 15, PM00104 0.9 and doxorubicin 6 mg/kg/day): −6.6% | % Inhibition (Hs746T tumors; day 15, PM00104 0.9 and irinotecan 20 mg/kg/day): −6.6% | % Inhibition (Hs746T tumors; day 15, mg/kg/day: PM00104 0.90 IV, 5-FU 50 at DPI 15 and 100 at DPI 22 & 29 IP): −6.6% | % Inhibition (Hs746T tumors; day 19, PM00104 0.9 and doxorubicin 6 mg/kg/day): 44.2% | % Inhibition (Hs746T tumors; day 19, PM00104 0.9 and irinotecan 20 mg/kg/day): 44.2% | % Inhibition (Hs746T tumors; day 19, mg/kg/day: PM00104 0.90 IV, 5-FU 50 at DPI 15 and 100 at DPI 22 & 29 IP): 44.2% | % Inhibition (Hs746T tumors; day 22, PM00104 0.9 and doxorubicin 6 mg/kg/day): 39.1% | % Inhibition (Hs746T tumors; day 22, PM00104 0.9 and irinotecan 20 mg/kg/day): 39.1% | % Inhibition (Hs746T tumors; day 22, mg/kg/day: PM00104 0.90 IV, 5-FU 50 at DPI 15 and 100 at DPI 22 & 29 IP): 39.1% | % Inhibition (Hs746T tumors; day 26, PM00104 0.9 and doxorubicin 6 mg/kg/day): 45.8% | % Inhibition (Hs746T tumors; day 26, PM00104 0.9 and irinotecan 20 mg/kg/day): 45.8% | % Inhibition (Hs746T tumors; day 26, mg/kg/day: PM00104 0.90 IV, 5-FU 50 at DPI 15 and 100 at DPI 22 & 29 IP): 45.8% | % Inhibition (Hs746T tumors; day 29, PM00104 0.9 and doxorubicin 6 mg/kg/day): 41.4% | % Inhibition (Hs746T tumors; day 29, PM00104 0.9 and irinotecan 20 mg/kg/day): 41.4% | % Inhibition (Hs746T tumors; day 29, mg/kg/day: PM00104 0.90 IV, 5-FU 50 at DPI 15 and 100 at DPI 22 & 29 IP): 41.4% | % Inhibition (Hs746T tumors; day 33, PM00104 0.9 and doxorubicin 6 mg/kg/day): 19.2% | % Inhibition (Hs746T tumors; day 33, PM00104 0.9 and irinotecan 20 mg/kg/day): 19.2% | % Inhibition (Hs746T tumors; day 33, mg/kg/day: PM00104 0.90 IV, 5-FU 50 at DPI 15 and 100 at DPI 22 & 29 IP): 19.2% | IC50 [5]: 1 nM | % T/C on day 9 (CaLu-6 tumors; [7]): 102.6% | % T/C on day 12 (CaLu-6 tumors; [7]): 77.9% | % T/C on day 15 (CaLu-6 tumors; [7]): 78.8% | % T/C on day 19 (CaLu-6 tumors; [7]): 90.6% | % T/C on day 22 (CaLu-6 tumors; [7]): 87.8% | % T/C on day 26 (CaLu-6 tumors; [7]): 87.6% | % T/C on day 29 (CaLu-6 tumors; [7]): 73.5% | % T/C on day 34 (CaLu-6 tumors; [7]): 75.8% | % T/C on day 40 (CaLu-6 tumors; [7]): 88.3%

Nc1ccn([C@@H]2O[C@H](CO)[C@@H](O)C2(F)F)c(=O)n1 [Gemcitabine, gemcitabine]
IC50 [1]: 0.84 mg/L | IC50 [2]: 0.079 mg/L | IC50 [3]: 110 mg/L | IC50 [4]: 0.012 mg/L | % Inhibition (BxPC-3 tumors; day 14): 3.1% | % T/C on day (BxPC-3 tumors; day 14): 96.9% | % Inhibition (BxPC-3 tumors; day 16): −44.6% | % T/C on day (BxPC-3 tumors; day 16): 144.6% | % Inhibition (BxPC-3 tumors; day 19): −15.6% | % T/C on day (BxPC-3 tumors; day 19): 115.6% | % Inhibition (BxPC-3 tumors; day 22): 25.5% | % T/C on day (BxPC-3 tumors; day 22): 74.5% | % Inhibition (BxPC-3 tumors; day 26): −6.1% | % T/C on day (BxPC-3 tumors; day 26): 106.1% | % Inhibition (BxPC-3 tumors; day 29): 20.7% | % T/C on day (BxPC-3 tumors; day 29): 79.3% | % Inhibition (BxPC-3 tumors; day 34): 31.3% | % T/C on day (BxPC-3 tumors; day 34): 68.7% | % Inhibition (BxPC-3 tumors; day 40): −33.9% | % T/C on day (BxPC-3 tumors; day 40): 133.9% | % T/C on day 9 (CaLu-6 tumors; [8]): 100.6% | % T/C on day 12 (CaLu-6 tumors; [8]): 37.8% | % T/C on day 15 (CaLu-6 tumors; [8]): 78.8% | % T/C on day 19 (CaLu-6 tumors; [8]): 64.8% | % T/C on day 22 (CaLu-6 tumors; [8]): 72.0% | % T/C on day 26 (CaLu-6 tumors; [8]): 67.1% | % T/C on day 29 (CaLu-6 tumors; [8]): 61.3% | % T/C on day 34 (CaLu-6 tumors; [8]): 72.8% | % T/C on day 40 (CaLu-6 tumors; [8]): 76.1% | % T/C on day 9 (CaLu-6 tumors; [7]): 99.6% | % T/C on day 12 (CaLu-6 tumors; [7]): 39.0% | % T/C on day 15 (CaLu-6 tumors; [7]): 61.0% | % T/C on day 19 (CaLu-6 tumors; [7]): 62.5% | % T/C on day 22 (CaLu-6 tumors; [7]): 48.7% | % T/C on day 26 (CaLu-6 tumors; [7]): 53.0% | % T/C on day 29 (CaLu-6 tumors; [7]): 46.8% | % T/C on day 34 (CaLu-6 tumors; [7]): 52.8% | % T/C on day 40 (CaLu-6 tumors; [7]): 60.4%
